Reference: patent US6169181A, “Compounds useful to treat retroviral infections” (Pharmacia & Upjohn Company, priority 1998, dated 2001)

Tests used:
[1] = biological target: T1, single chain tethered (tandem) HIV protease (HIV-1 M:B_HXB2R, UniProt P04585); assay: Tandem HIV protease assay; assay type: biochemical; details: Table II, enzyme HIV1TANDEM; for Ki: read-out: FITC KI
T1 construct: purified enzyme, FITC/biotin substrate assay
Protocol: In the enzyme inhibition assay described above, the sensitivity of Ki value determination is in part limited by the ability to continue to lower the enzyme concentration for compounds with high binding affinity. To prevent de-dimerization at low enzyme concentration, a tandemly linked enzyme is prepared in which the two monomers are covalently linked by an appropriate stretch of amino acid residues. Using the latter enzyme, the sensitivity of the inhibition assay is improved since much lower enzyme concentration can be utilized, as compared to the condition using the wild-type enzyme.
The starting inhibitor concentrations are determined based on preliminary enzyme inhibition screening results which estimate the expected potency of the inhibitor. Inhibitor concentrations are then prepared using the Biomek 1000 (Beckman) and the Quadra 96 (Tomtec). Substrate (biotinylated at the amino terminal arginine and fluorescently labeled with fluorescein at the carboxyl terminal lysine), inhibitor and the tandem enzyme are allowed to react in solution at pH 5.5 (buffers identical to those used with the native dimeric enzyme) in the dark for 96 hours. Streptavidin coated polystyrene beads are added to stop the reaction. The labeled cleavage product is separated from unreacted substrate via filtration. Residual fluorescence is quantitated with the Idexx SM2000 (Idexx) and the resulting data are analyzed using the NLLSF program.

HIV-1 protease = HIV-1 protease (Human immunodeficiency virus type 1 group M subtype B, UniProt P04585); assay: biochemical; details: Table II, enzyme HIV-1
How it was run: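 Percent inhibition came from fluorescence of FITC-tagged cleavage product, separated by filtration from uncleaved substrate captured on streptavidin-coated beads. The enzyme (10 μl of 0.1 μM) and compound acted on a biotin/FITC dual-labelled peptide for one hour at room temperature in the dark. The reaction ran in 0.1 M sodium acetate, pH 5.5, with 1.0 M NaCl and 0.05% NP-40.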

SMILES: CC(C)CC1(CC(C)C)CC(O)=C(C(c2cccc(NS(=O)(=O)c3cn(C)cn3)c2)C(C)(C)C)C(=O)O1 (racemic) [Example 305, N-[3-(1-[5,6-Dihydro-6,6-diisobutyl-4-hydroxy-2-oxo-2H-pyran-3-yl]-2,2-dimethylpropyl)-phenyl]-1-methyl-1H-imidazole-4-sulfonamide]
- Ki [1]: 0.4 nM
- PROTEASE % INHIB. (HIV-1 protease; DOSE 0.123 (unit not given)): 99.99%
- PROTEASE % INHIB. (HIV-1 protease; DOSE 0.370 (unit not given)): 110.76%
- PROTEASE % INHIB. (HIV-1 protease; DOSE 1.100 (unit not given)): 114.35%
- PROTEASE % INHIB. (HIV-1 protease; DOSE 3.300 (unit not given)): 110.88%
- PROTEASE % INHIB. (HIV-1 protease; DOSE 10.000 (unit not given)): 102.01%
- PROTEASE % INHIB. (HIV-1 protease; DOSE 30.000 (unit not given)): 57.83%

SMILES: CC(C)CC1(CC(C)C)CC(O)=C(C(c2cccc(NS(=O)(=O)c3ccc(C#N)cn3)c2)C(C)(C)C)C(=O)O1 (racemic) [Example 306, 5-Cyano-N-[3-(1-[5,6-dihydro-6,6-diisobutyl-4-hydroxy-2-oxo-2H-pyran-3-yl]-2,2-dimethylpropyl)-phenyl]-2-pyridinesulfonamide]
- Ki [1]: 0.04 nM
- PROTEASE % INHIB. (HIV-1 protease; DOSE 0.123 (unit not given)): 71.79%
- PROTEASE % INHIB. (HIV-1 protease; DOSE 0.370 (unit not given)): 82.71%
- PROTEASE % INHIB. (HIV-1 protease; DOSE 1.100 (unit not given)): 89.3%
- PROTEASE % INHIB. (HIV-1 protease; DOSE 3.300 (unit not given)): 97.29%
- PROTEASE % INHIB. (HIV-1 protease; DOSE 10.000 (unit not given)): 82.59%
- PROTEASE % INHIB. (HIV-1 protease; DOSE 30.000 (unit not given)): 53.43%

SMILES: Cn1cnc(S(=O)(=O)Nc2cccc(C(C3=C(O)CC(CCc4ccccc4)(CCC(F)(F)F)OC3=O)C(C)(C)C)c2)c1 (single isomer, unassigned) [Example 270, N-[3-(R or S)-[1-[5,6-dihydro-4-hydroxy-2-oxo-6-(R or S)-(2-phenethyl)-6-(3,3,3-trifluoropropyl)-2H-pyran-3-yl]-2,2-dimethylpropyl]phenyl]-1-methyl-1H-imidazole-4-sulfonamide]
- Ki [1]: 0.024 nM
- PROTEASE % INHIB. (HIV-1 protease; DOSE 0.123 (unit not given)): 75.26%
- PROTEASE % INHIB. (HIV-1 protease; DOSE 0.370 (unit not given)): 85.62%
- PROTEASE % INHIB. (HIV-1 protease; DOSE 1.100 (unit not given)): 93.45%
- PROTEASE % INHIB. (HIV-1 protease; DOSE 3.300 (unit not given)): 96.62%
- PROTEASE % INHIB. (HIV-1 protease; DOSE 10.000 (unit not given)): 94.57%
- PROTEASE % INHIB. (HIV-1 protease; DOSE 30.000 (unit not given)): 82.67%

SMILES: Cn1cnc(S(=O)(=O)Nc2cccc(C(C3=C(O)CC(CCc4ccccc4)(CCC(F)(F)F)OC3=O)C(C)(C)C)c2)c1 (single isomer, unassigned) [Example 273, N-[3-(R or S)-[1-[5,6-dihydro-4-hydroxy-2-oxo-6-(R or S)-(2-phenethyl)-6-(3,3,3-trifluoropropyl)-2H-pyran-3-yl]-2,2-dimethylpropyl]phenyl]-1-methyl-1H-imidazole-4-sulfonamide]
- Ki [1]: 2.3 nM
- PROTEASE % INHIB. (HIV-1 protease; DOSE 0.123 (unit not given)): < 10%
- PROTEASE % INHIB. (HIV-1 protease; DOSE 0.370 (unit not given)): 23.24%
- PROTEASE % INHIB. (HIV-1 protease; DOSE 1.100 (unit not given)): 75.38%
- PROTEASE % INHIB. (HIV-1 protease; DOSE 3.300 (unit not given)): 94.63%
- PROTEASE % INHIB. (HIV-1 protease; DOSE 10.000 (unit not given)): 95.93%
- PROTEASE % INHIB. (HIV-1 protease; DOSE 30.000 (unit not given)): 91%

SMILES: CCC[C@@]1(CCc2ccc(F)cc2)CC(O)=C([C@H](CC)c2cccc(NS(=O)(=O)c3ccc(C#N)cn3)c2)C(=O)O1 (single isomer, unassigned) [Example 365, N-[3-{1(R or S)-(4-Hydroxy-5,6-dihydro-2-oxo-6(R or S)-(2-(4-fluorophenyl)ethyl)-6-propyl-2H-pyran-3-yl)propyl}phenyl]-5-cyanopyridine-2-sulfonamide]
- Ki [1]: 0.023 nM

SMILES: CCC[C@@]1(CCc2ccc(F)cc2)CC(O)=C([C@H](CC)c2cccc(NS(=O)(=O)c3cn(C)cn3)c2)C(=O)O1 (single isomer, unassigned) [Example 368, N-[3-{1(R or S)-(4-Hydroxy-5,6-dihydro-2-oxo-6(R or S)-(2-(4-fluorophenyl)ethyl)-6-propyl-2H-pyran-3-yl)propyl}phenyl]-1-methyl-1H-imidazole-4-sulfonamide]
- Ki [1]: 0.232 nM

SMILES: CCCC1(CCc2ccccc2)CC(O)=C([C@@H](CC)c2cccc(NS(=O)(=O)c3ccc(C(F)(F)F)cn3)c2)C(=O)O1 (stereo partly drawn) [Example 374, N-[3-[1-(S)-[5,6,-Dihydro-4-hydroxy-2-oxo-6-(2-phenylethyl)-6-propyl-2H-pyran-3-yl]propyl]phenyl]-5-(triflouromethyl)-2-pyridinesulfonamide]
- PROTEASE % INHIB. ([1]; DOSE 0.123 (unit not given)): 78.97%
- PROTEASE % INHIB. ([1]; DOSE 0.370 (unit not given)): 82.14%
- PROTEASE % INHIB. ([1]; DOSE 1.100 (unit not given)): 84.98%
- PROTEASE % INHIB. ([1]; DOSE 3.300 (unit not given)): 87.70%
- PROTEASE % INHIB. ([1]; DOSE 10.000 (unit not given)): 95.25%
- PROTEASE % INHIB. ([1]; DOSE 30.000 (unit not given)): 80.11%
- Ki [1]: 0.031 nM
